Converted amounts (≈) assume the structure as drawn. “Also recorded” adds a separate entry of the source. Like-named read-outs stand apart in the source and are kept apart here.
Legend:
[1] = system: S. haemolyticus TUH 51-07 biofilm; assay: Biofilm imaging, LIVE/DEAD staining and confocal laser scanning microscopy; type: cell-based, Staphylococcus haemolyticus; settings: 24 h treatment
Method: One ml aliquots of MHIIB-diluted overnight culture was used to grow S. haemolyticus TUH 51-07 biofilm on plastic coverslides (Thermanox, cellculture treated on one side, NUNC, Roskilde, Denmark) in 24-well dishes (Falcon 3047, Becton Dickinson, NJ, USA) for 24 h. The coverslides were then washed carefully with PBS, moved to a new plate and treated for 24 h with tetracycline 50 mg/L and 500 mg/L, vancomycin 50 mg/L and 500 mg/L, or Compound A 50 mg/L and 500 mg/L. The coverslides were washed again with […] and stained with a LIVE/DEAD kit (Invitrogen Molecular Probes, Eugene, Oreg., USA) following the manufacturer's instructions. This stain contains SYTO 9 (green fluorescent) and propidium iodide (PI; red fluorescent), both binding to DNA. When used alone, the SYTO 9 generally stains all bacteria in a population; both those with intact and those with damaged membranes. In contrast, PI penetrates only bacteria with damaged membranes, causing a reduction in the SYTO 9 stain green fluorescence when both dyes are present. We examined treated and untreated biofilms with a Leica TCS SP5 (Leica Microsystems CMS Gmbh, Mannheim, Germany) confocal laser scanning microscope (CLSM). Images were obtained using a 63×1.2 NA HCX PL APO water immersion lens. For detection of SYTO9 (green channel), we used the 488 nm line of the argon laser and a detection bandwidth of 495-515 nm. For PI detection (red channel), we used the 561 nm line and a detection bandwidth of 615-660 nm. The two fluorescent-signals were collected sequentially at 400 Hz. Image analyses and export was performed in Leica LAS AF version 1.8.2.

[2] = system: Staphylococcus aureus PIA90; assay: microbe, parasite or virus in culture
Method: (§1) Bacteria were grown overnight at 37° C. in cation adjusted Mueller-Hinton II Broth (MHIIB).
(§2) We determined the MICs of oxacillin, gentamicin, tetracycline, vancomycin and linezolid using E-test (AB Biodisk, Solna, Sweden) and MICs of rifampicin using broth microdilution assay. Breakpoints were interpreted according to EUCAST criteria. […] All 3 SAMPs are tripeptides with two arginine residues providing their cationic moieties (FIG. 1). The lipophilic bulk is provided by a modified tryptophane derivate. […] The molecular weights of the SAMPs are in the range of 700-800 Dalton.

[3] = system: Staphylococcus haemolyticus TUH 51-03; assay: microbe, parasite or virus in culture
Method: as §1, §2

[4] = system: Staphylococcus epidermidis TUH 08-16; assay: microbe, parasite or virus in culture
Method: as §1, §2

[5] = system: Staphylococcus aureus PIA 9; assay: microbe, parasite or virus in culture
Method: as §1, §2

[6] = system: Staphylococcus epidermidis RP62A ATCC 35984; assay: microbe, parasite or virus in culture
Method: as §1, §2

[7] = system: Staphylococcus haemolyticus TUH 51-07; assay: microbe, parasite or virus in culture
Method: as §1, §2

[8] = system: 24 h old biofilm of 6 different staphylococcal strains; assay: Biofilm metabolic activity, Alamar blue reduction; type: cell-based, S. epidermidis, S. haemolyticus, S. aureus; settings: 50 mg/L, 24 h treatment; all biofilms except S. aureus PIA 9
[9] = system: six staphylococcal strains (2 S. epidermidis, 2 S. haemolyticus and 2 S. aureus); assay: Susceptibility testing under planktonic growth condition, EUCAST breakpoints; type: cell-based; settings: all 6 strains; EUCAST criteria
Method: The six staphylococcal strains (2 S. epidermidis, 2 S. haemolyticus and 2 S. aureus) used in this study were selected based on their previously known biofilm forming capacity (Table 1).
as §1
We determined the MICs of oxacillin, gentamicin, tetracycline, vancomycin and linezolid using E-test (AB Biodisk, Solna, Sweden) and MICs of rifampicin using broth microdilution assay. Breakpoints were interpreted according to EUCAST criteria. We selected 3 different SAMPs (Compounds A, B and C; Lytix Biopharma, Tromsø, Norway—see FIG. 1) based on previously known antimicrobial activities, and determined their exact MICs with broth microdilution assay. All 3 SAMPs are tripeptides with two arginine residues providing their cationic moieties (FIG. 1). The lipophilic bulk is provided by a modified tryptophane derivate. The difference between the compounds is the size of the C-terminal modification; Compound A has the smallest and Compound B has the largest C-terminal modification (FIG. 1). The molecular weights of the SAMPs are in the range of 700-800 Dalton.

| MIC ([2]; PIA90) | MIC ([4]; TUH 08-16) | MIC ([5]; PIA 9) | MIC ([6]; ATCC 35984) | Compound | MIC [3] | MIC [7] | suppression of metabolic activity (AB reduction) [8] | also measured |
| --- | --- | --- | --- | --- | --- | --- | --- | --- |
| 8 µg/mL (≈ 11 µM) | 4 µg/mL (≈ 5.51 µM) | 8 µg/mL (≈ 11 µM) | 8 µg/mL (≈ 11 µM) | CC(C)NC(=O)[C@H](CCCNC(=N)N)NC(=O)[C@H](Cc1c(C(C)(C)C)[nH]c2c(C(C)(C)C)cc(C(C)(C)C)cc12)NC(=O)[C@@H](N)CCCNC(=N)N [Compound A] | 8 µg/mL (≈ 11 µM) | 8 µg/mL (≈ 11 µM) | strong or complete suppression | LIVE/DEAD staining of biofilm cells (CLSM) ([1]; 50 mg/L): almost all cells are stained red; LIVE/DEAD staining of biofilm cells (CLSM) ([1]; 500 mg/L): almost all cells are stained red; also recorded: membrane damage of all cells |
|  |  |  |  | CC(C)(C)c1cc(C(C)(C)C)c2[nH]c(C(C)(C)C)c(C[C@H](NC(=O)[C@@H](N)CCCNC(=N)N)C(=O)N[C@@H](CCCNC(=N)N)C(=O)NCCc3ccccc3)c2c1 [Compound B] |  |  | strong or complete suppression | MIC ([2]; planktonic, SA PIA90): 2 µg/mL (≈ 2.54 µM); MIC ([3]; planktonic, SH TUH 51-03): 4 µg/mL (≈ 5.08 µM); MIC ([4]; planktonic, SE TUH 08-16): 2 µg/mL (≈ 2.54 µM); MIC ([5]; planktonic, SA PIA 9): 2 µg/mL (≈ 2.54 µM); MIC ([6]; planktonic, SE RP62A ATCC 35984): 4 µg/mL (≈ 5.08 µM); MIC ([7]; planktonic, SH TUH 51-07): 4 µg/mL (≈ 5.08 µM) |
| 2 µg/mL (≈ 2.6 µM) | 2 µg/mL (≈ 2.6 µM) | 4 µg/mL (≈ 5.21 µM) | 4 µg/mL (≈ 5.21 µM) | CCCCCCNC(=O)[C@H](CCCNC(=N)N)NC(=O)[C@H](Cc1c(C(C)(C)C)[nH]c2c(C(C)(C)C)cc(C(C)(C)C)cc12)NC(=O)[C@@H](N)CCCNC(=N)N [Compound C] | 4 µg/mL (≈ 5.21 µM) | 4 µg/mL (≈ 5.21 µM) | strong or complete suppression |  |
|  |  |  |  | CC(=O)NC[C@H]1CN(c2ccc(N3CCOCC3)c(F)c2)C(=O)O1 [LZD, linezolid] |  |  |  | MIC ([2]; Staphylococcus aureus, PIA90): 1 µg/mL (≈ 2.96 µM); MIC ([3]; Staphylococcus haemolyticus, TUH5103): 0.5 µg/mL (≈ 1.48 µM); MIC ([4]; Staphylococcus epidermidis, TUH0816): 2 µg/mL (≈ 5.93 µM); MIC ([5]; Staphylococcus aureus, PIA9): 2 µg/mL (≈ 5.93 µM); MIC ([6]; Staphylococcus epidermidis, ATCC35984): 1 µg/mL (≈ 2.96 µM); MIC ([7]; Staphylococcus haemolyticus, TUH5107): 0.5 µg/mL (≈ 1.48 µM); susceptibility under planktonic growth [9]: susceptible; also recorded: sensitive |

Reference: patent US9085608B2, “Treatment of biofilms” (LYTIX BIOPHARMA AS, priority 2008, dated 2015)
